Here are results for ten compounds from US20220370440A1 (Lead Discovery Center GmbH, priority 2018, published 2022).

Series [1] concerns the target EGFR Exon 20 INSNPH Ba/F3 (Homo sapiens, UniProt P00533, DUP771-773, cells depend on it). The experiment in a line: EGFR Exon 20 INSNPH Ba/F3 CellTiter-Glo. It is filed as cell-based. Conditions: CellTiter-Glo, 72 h, read-out: EGFR Exon 20 INSNPH Ba/F3 CTG IC50. The method in brief: (§1)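 IC50 values come from dose–response fits of CellTiter-Glo luminescence in Ba/F3 cells treated with compound for 72 h at 37 °C, 5% CO2. Vehicle (DMSO) and 10 μM staurosporine wells set the assay window, with Z′ ≥0.5 required.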
On the technique in general: In ATP-based viability assays light output follows the ATP content of the culture.

For the next series, the target named is T1, HER2 INS YVMA (Homo sapiens, UniProt P04626, INS775YVMA).
T1 construct: purchased DPF
The series can be described thus: Lance Kinase Activity Assay, HER2 INS YVMA (Her2 Exon 20 INSYVMA Lance). The conditions noted are these: biochemical Lance assay. It is filed as biochemical. The method in brief:
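Kinase phosphorylates a ULight-labelled peptide substrate; Eu anti-phospho antibody gives TR-FRET (ex 340 nm, em 665/615 nm). Compounds in 1:3 serial dilution over 8 steps, reaction started with ATP, 1 h at room temperature, stopped with EDTA-containing detection mix for 1 h. IC50 from sigmoidal dose-response curves.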

The nature of series [2]: Metabolic stability in mouse liver microsomes without cofactor NADPH. Format: in vitro ADME. Conditions: 3 μM test compound, mouse liver microsomes, without NADPH, 50 min, 37° C., LC-MS/MS. The gist of the method: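 Test compound (3 μM) was incubated with mouse liver microsomes without NADPH at 37° C. Depletion was followed by LC-MS/MS over time up to 50 min.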
(In general: Liver microsomes are vesicles of endoplasmic reticulum, rich in cytochrome P450 enzymes.)

A further series has as its target EGFR wt (Homo sapiens, UniProt P00533). The experiment in a line: EGFR wt Lance assay. It is filed as biochemical. How it is done: (§2) Inhibition is indicated as […] [nM] (“−”=not measured). Compounds having an activity designated as “A” provided an IC50≤100 nM; compounds having an activity designated as “B” provided an 100 nM<IC50≤500 nM; compounds having an activity designated as “C” provided an 500 nM<IC50≤1000 nM; compounds having an activity designated as “D” provided an 1000 nM<IC50≤100000 nM; and compounds having an activity designated as “E” provided an IC50>10000 nM.

The next series deals with H1975. The series can be described thus: H1975 CellTiter-Glo. It is filed as cell-based. Conditions: Homo sapiens, NCI-H1975; 72 h compound incubation; read-out: H1975 CTG IC50. The method in brief:
(§3)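 Antiproliferative IC50 values come from a 72 h treatment of cultured cells, measured by CellTiter-Glo ATP luminescence. Only runs with a Z′-factor of at least 0.5, calculated from 16 vehicle and 16 Staurosporine (10 μM) control wells, are reported.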

The target of series [3] is Her2 Exon 20 INSYVMA Ba/F3 (Homo sapiens, UniProt P04626, DUP772-775, cells depend on it). The series can be described thus: Her2 Exon 20 INSYVMA Ba/F3 CellTiter-Glo. It is filed as cell-based. Conditions: CellTiter-Glo, 72 h, read-out: Her2 Exon 20 INSYVMA Ba/F3 CTG IC50. The gist of the method:
as §1

The subject of the next series is A431. The series can be described thus: A431 CellTiter-Glo. Format: cell-based. The conditions noted are these: Homo sapiens, A-431; 72 h compound incubation; read-out: A431 CTG IC50. The gist of the method: as §3
For another series, the target named is EGFR T790ML858R (Homo sapiens, UniProt P00533, L858R/T790M). The experiment in a line: EGFR T790ML858R Lance assay. Format: biochemical. On the procedure:
as §2

Some results are limits rather than exact numbers.

Chain of EGFR wt (P00533 25-1210): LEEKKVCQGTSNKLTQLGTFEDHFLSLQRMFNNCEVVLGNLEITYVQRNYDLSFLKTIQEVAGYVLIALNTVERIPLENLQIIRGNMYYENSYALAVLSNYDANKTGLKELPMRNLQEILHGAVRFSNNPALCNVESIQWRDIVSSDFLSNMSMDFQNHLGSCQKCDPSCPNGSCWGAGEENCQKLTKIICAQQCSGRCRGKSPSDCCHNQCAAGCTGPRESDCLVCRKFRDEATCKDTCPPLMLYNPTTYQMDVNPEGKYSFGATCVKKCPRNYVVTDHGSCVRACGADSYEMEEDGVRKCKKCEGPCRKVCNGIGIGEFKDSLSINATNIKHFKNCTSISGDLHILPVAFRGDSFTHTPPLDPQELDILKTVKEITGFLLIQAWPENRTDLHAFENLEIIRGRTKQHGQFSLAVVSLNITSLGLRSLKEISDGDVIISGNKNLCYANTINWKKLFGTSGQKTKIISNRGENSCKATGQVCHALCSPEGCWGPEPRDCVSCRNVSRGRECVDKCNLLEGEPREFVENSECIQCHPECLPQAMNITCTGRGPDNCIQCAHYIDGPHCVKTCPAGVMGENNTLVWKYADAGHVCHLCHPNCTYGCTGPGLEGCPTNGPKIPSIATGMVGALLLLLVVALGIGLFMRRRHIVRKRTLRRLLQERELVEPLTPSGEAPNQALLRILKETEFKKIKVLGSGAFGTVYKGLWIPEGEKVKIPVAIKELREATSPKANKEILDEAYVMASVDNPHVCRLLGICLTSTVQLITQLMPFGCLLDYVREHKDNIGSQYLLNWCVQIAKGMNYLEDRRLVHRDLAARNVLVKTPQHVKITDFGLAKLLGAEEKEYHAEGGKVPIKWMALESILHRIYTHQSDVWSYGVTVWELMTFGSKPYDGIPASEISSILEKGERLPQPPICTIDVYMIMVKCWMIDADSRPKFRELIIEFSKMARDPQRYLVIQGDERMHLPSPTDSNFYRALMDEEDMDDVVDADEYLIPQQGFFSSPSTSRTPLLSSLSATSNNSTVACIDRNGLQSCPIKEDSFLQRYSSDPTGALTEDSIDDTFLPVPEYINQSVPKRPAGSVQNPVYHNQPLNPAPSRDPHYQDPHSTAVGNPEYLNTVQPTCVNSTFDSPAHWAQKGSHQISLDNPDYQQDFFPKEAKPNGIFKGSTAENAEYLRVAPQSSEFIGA
Chain of EGFR T790ML858R (P00533 25-1210 T790M/L858R): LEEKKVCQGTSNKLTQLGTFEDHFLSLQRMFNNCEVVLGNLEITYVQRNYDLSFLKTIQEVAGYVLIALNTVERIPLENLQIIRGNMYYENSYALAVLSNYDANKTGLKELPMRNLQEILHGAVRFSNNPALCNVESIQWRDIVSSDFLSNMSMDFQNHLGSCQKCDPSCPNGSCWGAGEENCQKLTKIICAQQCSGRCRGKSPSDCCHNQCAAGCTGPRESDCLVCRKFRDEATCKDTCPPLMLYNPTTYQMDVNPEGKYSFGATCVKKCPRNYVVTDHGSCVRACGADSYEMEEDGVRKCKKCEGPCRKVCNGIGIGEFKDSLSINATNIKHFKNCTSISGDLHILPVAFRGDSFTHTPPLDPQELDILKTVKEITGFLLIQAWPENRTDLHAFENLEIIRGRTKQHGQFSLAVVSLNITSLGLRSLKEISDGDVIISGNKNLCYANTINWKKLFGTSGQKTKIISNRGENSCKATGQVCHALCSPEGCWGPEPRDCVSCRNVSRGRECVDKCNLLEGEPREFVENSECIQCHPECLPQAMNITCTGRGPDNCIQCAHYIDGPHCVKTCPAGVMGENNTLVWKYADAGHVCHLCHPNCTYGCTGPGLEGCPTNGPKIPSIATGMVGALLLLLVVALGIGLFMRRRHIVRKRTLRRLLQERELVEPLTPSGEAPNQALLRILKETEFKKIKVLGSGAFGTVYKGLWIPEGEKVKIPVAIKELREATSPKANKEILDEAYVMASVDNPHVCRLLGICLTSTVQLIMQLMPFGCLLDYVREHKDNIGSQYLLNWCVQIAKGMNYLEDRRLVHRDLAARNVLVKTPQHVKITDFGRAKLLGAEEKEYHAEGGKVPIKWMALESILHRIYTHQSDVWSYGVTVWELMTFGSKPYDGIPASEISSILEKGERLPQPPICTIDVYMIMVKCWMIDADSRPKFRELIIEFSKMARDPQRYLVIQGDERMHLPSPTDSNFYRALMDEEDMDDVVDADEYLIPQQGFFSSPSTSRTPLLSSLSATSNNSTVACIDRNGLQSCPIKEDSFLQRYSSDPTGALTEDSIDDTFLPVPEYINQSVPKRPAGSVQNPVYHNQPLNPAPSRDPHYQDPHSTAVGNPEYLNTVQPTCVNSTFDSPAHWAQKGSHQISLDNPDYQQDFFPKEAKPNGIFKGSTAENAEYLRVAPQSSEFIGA
Chain of Her2 Exon 20 INSYVMA Ba/F3 (P04626 with tags, fused parts or gaps DUP772-775): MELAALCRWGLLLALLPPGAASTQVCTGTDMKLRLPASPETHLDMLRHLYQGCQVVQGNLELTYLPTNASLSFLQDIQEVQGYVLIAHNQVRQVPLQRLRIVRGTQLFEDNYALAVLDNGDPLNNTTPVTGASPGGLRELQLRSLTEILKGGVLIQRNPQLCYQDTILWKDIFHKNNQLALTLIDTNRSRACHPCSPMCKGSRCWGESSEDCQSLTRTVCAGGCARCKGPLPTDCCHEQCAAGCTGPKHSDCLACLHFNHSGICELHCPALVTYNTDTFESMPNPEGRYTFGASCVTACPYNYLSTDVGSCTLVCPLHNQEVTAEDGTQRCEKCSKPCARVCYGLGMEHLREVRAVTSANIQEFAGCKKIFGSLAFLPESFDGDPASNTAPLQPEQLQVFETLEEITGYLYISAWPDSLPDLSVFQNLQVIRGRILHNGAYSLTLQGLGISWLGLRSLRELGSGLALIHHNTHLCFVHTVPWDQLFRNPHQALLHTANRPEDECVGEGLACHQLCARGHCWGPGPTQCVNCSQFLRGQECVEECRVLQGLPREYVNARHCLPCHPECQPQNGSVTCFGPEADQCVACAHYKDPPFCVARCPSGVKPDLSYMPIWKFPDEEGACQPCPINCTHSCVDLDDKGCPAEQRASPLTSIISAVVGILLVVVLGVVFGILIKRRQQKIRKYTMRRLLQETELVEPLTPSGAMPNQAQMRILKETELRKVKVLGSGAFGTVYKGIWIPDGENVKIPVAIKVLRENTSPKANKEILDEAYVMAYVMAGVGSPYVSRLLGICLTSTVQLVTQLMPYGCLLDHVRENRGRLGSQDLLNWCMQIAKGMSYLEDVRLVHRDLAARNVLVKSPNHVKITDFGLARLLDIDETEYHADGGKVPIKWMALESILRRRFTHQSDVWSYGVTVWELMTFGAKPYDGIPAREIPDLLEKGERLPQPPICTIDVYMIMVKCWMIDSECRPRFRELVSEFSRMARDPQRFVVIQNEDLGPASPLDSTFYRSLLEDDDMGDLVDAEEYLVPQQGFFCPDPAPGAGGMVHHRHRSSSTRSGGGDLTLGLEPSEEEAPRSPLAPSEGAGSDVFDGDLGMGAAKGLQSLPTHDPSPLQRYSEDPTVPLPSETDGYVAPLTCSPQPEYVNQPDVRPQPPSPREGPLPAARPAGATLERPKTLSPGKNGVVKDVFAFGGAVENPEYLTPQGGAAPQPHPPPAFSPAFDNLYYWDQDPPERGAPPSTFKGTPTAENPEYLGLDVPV
Chain of EGFR Exon 20 INSNPH Ba/F3 (P00533 with tags, fused parts or gaps DUP771-773): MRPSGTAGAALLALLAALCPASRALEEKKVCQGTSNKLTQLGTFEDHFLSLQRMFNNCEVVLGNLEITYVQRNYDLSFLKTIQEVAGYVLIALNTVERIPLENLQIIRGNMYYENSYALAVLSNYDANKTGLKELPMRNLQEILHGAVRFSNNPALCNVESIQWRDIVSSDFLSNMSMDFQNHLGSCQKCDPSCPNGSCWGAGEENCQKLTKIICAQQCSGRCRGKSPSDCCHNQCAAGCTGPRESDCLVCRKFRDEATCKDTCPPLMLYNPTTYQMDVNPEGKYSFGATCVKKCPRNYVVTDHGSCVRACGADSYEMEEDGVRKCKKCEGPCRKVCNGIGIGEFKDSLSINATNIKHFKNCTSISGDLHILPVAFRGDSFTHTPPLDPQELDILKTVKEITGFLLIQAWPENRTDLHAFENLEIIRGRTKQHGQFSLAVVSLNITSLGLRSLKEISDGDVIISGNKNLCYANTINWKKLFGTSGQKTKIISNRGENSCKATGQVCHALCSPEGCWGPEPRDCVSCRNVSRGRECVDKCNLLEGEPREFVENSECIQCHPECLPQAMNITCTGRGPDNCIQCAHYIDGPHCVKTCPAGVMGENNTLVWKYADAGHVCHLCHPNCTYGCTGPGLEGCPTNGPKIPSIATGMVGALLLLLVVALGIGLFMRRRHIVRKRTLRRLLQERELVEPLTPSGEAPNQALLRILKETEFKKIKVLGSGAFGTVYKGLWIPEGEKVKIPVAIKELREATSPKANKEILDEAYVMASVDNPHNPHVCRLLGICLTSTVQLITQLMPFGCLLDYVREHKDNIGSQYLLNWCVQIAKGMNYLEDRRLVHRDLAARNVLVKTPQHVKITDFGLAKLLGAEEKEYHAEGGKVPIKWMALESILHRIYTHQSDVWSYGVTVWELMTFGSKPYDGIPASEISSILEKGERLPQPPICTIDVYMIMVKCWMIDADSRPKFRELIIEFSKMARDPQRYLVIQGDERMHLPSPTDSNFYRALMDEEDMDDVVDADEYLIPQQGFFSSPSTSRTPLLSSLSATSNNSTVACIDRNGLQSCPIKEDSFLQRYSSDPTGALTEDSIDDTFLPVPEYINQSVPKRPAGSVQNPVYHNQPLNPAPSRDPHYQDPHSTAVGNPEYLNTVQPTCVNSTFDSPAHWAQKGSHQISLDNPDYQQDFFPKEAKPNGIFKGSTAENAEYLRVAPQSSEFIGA

For the compound `C=CC(=O)Nc1cc(-c2c(-c3ccc(CN(C)C)cc3)[nH]c3ncc(C(=O)OC(C)C)cc23)cc(F)c1C` [Example 177, isopropyl 3-(3-acrylamido-5-fluoro-4-methylphenyl)-2-(4-((dimethylamino)methyl)phenyl)-1H-pyrrolo[2,3-b]pyridine-5-carboxylate], the GI50 in series [1] and in series [3] was 100 to 500 nM each time. In addition, the IC50 – broadly, the concentration needed to halve the response being measured – was at most 100 nM against HER2 INS YVMA; at most 100 nM against EGFR wt; 100 to 500 nM with H1975; 1000 to 100000 nM with A431; at most 100 nM on EGFR T790ML858R. In addition, the “Stability in presence of mouse liver microsomes without cofactor NADPH [% remaining after 50 min]” value in series [2] is listed as above 99 % remaining after 50 min.
In the case of `C=CC(=O)Nc1cc(-c2c(-c3ccc(OCCN(C)C)cc3)[nH]c3ncc(C(=O)OC(C)C)cc23)ccc1C` [Example 159, isopropyl 3-(3-acrylamido-4-methylphenyl)-2-(4-(2-(dimethylamino)ethoxy)phenyl)-1H-pyrrolo[2,3-b]pyridine-5-carboxylate], the GI50 in series [1] and in series [3] was 100 to 500 nM throughout. The IC50 at HER2 INS YVMA is at most 100 nM; against EGFR wt, at most 100 nM; in the series on H1975 it was 100 to 500 nM; in the series on A431, 1000 to 100000 nM; against EGFR T790ML858R, at most 100 nM. Besides, the “Stability in presence of mouse liver microsomes without cofactor NADPH [% remaining after 50 min]” value in series [2] was above 99 % remaining after 50 min.
With `C=CC(=O)N1CCc2ccc(-c3c(-c4ccnc(N5CCN(C)CC5)c4)[nH]c4nccc(OC)c34)cc21` [Example 111, 1-(6-(4-methoxy-2-(2-(4-methylpiperazin-1-yl)pyridin-4-yl)-1H-pyrrolo[2,3-b]pyridin-3-yl)indolin-1-yl)prop-2-en-1-one], the GI50 in series [1] and in series [3] was at most 100 nM in each case. Further, the IC50 against HER2 INS YVMA was at most 100 nM; at EGFR wt, at most 100 nM; with H1975, at most 100 nM; with A431, 100 to 500 nM; against EGFR T790ML858R, at most 100 nM. Further, the “Stability in presence of mouse liver microsomes without cofactor NADPH [% remaining after 50 min]” value in series [2] is recorded as 90 % remaining after 50 min.
With `C=CC(=O)Nc1cc(-c2c(-c3ccc(OCCN(C)C)cc3)[nH]c3ncc(C(=O)OC(C)C)cc23)cc(F)c1C` [Example 182, isopropyl 3-(3-acrylamido-5-fluoro-4-methylphenyl)-2-(4-(2-(dimethylamino)ethoxy)phenyl)-1H-pyrrolo[2,3-b]pyridine-5-carboxylate], the GI50 in series [1] and in series [3] was 100 to 500 nM throughout. The IC50 against HER2 INS YVMA is at most 100 nM; against EGFR wt, at most 100 nM; in the series on H1975 it was 100 to 500 nM; in the series with A431, 1000 to 100000 nM; at EGFR T790ML858R, at most 100 nM. Besides, the “Stability in presence of mouse liver microsomes without cofactor NADPH [% remaining after 50 min]” value in series [2] is recorded as above 99 % remaining after 50 min.
On to `C=CC(=O)N1CCc2ccc(-c3c(-c4ccc(CN5CCN(C)CC5)cc4)[nH]c4nccc(OCC)c34)cc21` [Example 108, 1-(6-(4-ethoxy-2-(4-((4-methylpiperazin-1-yl)methyl)phenyl)-1H-pyrrolo[2,3-b]pyridin-3-yl)indolin-1-yl)prop-2-en-1-one], for which the GI50 in series [1] and in series [3] was 100 to 500 nM throughout. In addition, the IC50 against HER2 INS YVMA is at most 100 nM; at EGFR wt, at most 100 nM; with H1975, at most 100 nM; in the series with A431, 500 to 1000 nM; on EGFR T790ML858R, at most 100 nM. The “Stability in presence of mouse liver microsomes without cofactor NADPH [% remaining after 50 min]” value in series [2] amounted to 86 % remaining after 50 min.
Consider `C=CC(=O)N1CCc2ccc(-c3c(-c4ccc(N5CCN(CC)CC5)cc4)[nH]c4nccc(Cl)c34)cc21` [Example 63, 1-(6-(4-chloro-2-(4-(4-ethylpiperazin-1-yl)phenyl)-1H-pyrrolo[2,3-b]pyridin-3-yl)indolin-1-yl)prop-2-en-1-one], for which the GI50 in series [1] and in series [3] was 100 to 500 nM each time. The IC50 on HER2 INS YVMA is at most 100 nM; against EGFR wt, at most 100 nM; in the series on H1975, at most 100 nM; in the series with A431, 500 to 1000 nM; on EGFR T790ML858R, at most 100 nM. In series [2], the “Stability in presence of mouse liver microsomes without cofactor NADPH [% remaining after 50 min]” value is reported as above 99 % remaining after 50 min.
For the compound `Cc1ccc(-c2c(-c3ccc(N4CCN(C)CC4)cc3)[nH]c3nccc(Cl)c23)cc1NC(=O)CCl` [Example 146, 2-chloro-N-(5-(4-chloro-2-(4-(4-methylpiperazin-1-yl)phenyl)-1H-pyrrolo[2,3-b]pyridin-3-yl)-2-methylphenyl)acetamide 2,2,2-trifluoroacetate], the GI50 in series [1] and in series [3] was 100 to 500 nM in each case. Besides, the IC50 is at most 100 nM against HER2 INS YVMA; at most 100 nM against EGFR wt; at most 100 nM with H1975; 100 to 500 nM with A431; at most 100 nM at EGFR T790ML858R. Further, the “Stability in presence of mouse liver microsomes without cofactor NADPH [% remaining after 50 min]” value in series [2] came to 9 % remaining after 50 min.
On to `C=CC(=O)N1CCc2ccc(-c3c(-c4ccc(CN5CCN(C)CC5)cc4)[nH]c4nccc(OC)c34)cc21` [Example 113, 1-(6-(4-methoxy-2-(4-((4-methylpiperazin-1-yl)methyl)phenyl)-1H-pyrrolo[2,3-b]pyridin-3-yl)indolin-1-yl)prop-2-en-1-one], for which the GI50 in series [1] and in series [3] was at most 100 nM each time. Further, the IC50 is at most 100 nM on HER2 INS YVMA; at most 100 nM on EGFR wt; at most 100 nM in the series with H1975; 100 to 500 nM in the series on A431; at most 100 nM against EGFR T790ML858R. In series [2], the “Stability in presence of mouse liver microsomes without cofactor NADPH [% remaining after 50 min]” value stood at 96 % remaining after 50 min.
For `C=CC(=O)Nc1cc(-c2c(-c3ccc(N4CCN(C)CC4)cc3)[nH]c3ncc(C(=O)OC(C)C)cc23)cc(F)c1C` [Example 165, isoproyl 3-(3-acrylamido-5-fluoro-4-methylphenyl)-2-(4-(4-methylpiperazin-1-yl)phenyl)-1H-pyrrolo[2,3-b]pyridine-5-carboxylate 2,2,2-trifluoroacetate], the GI50 in series [1] and in series [3] was 100 to 500 nM each time. Further, the IC50 on HER2 INS YVMA was at most 100 nM; against EGFR wt, at most 100 nM; with H1975, 100 to 500 nM; with A431, 1000 to 100000 nM; against EGFR T790ML858R, at most 100 nM. Further, in series [2], the “Stability in presence of mouse liver microsomes without cofactor NADPH [% remaining after 50 min]” value is given as above 99 % remaining after 50 min.
For `C=CC(=O)N1CCc2ccc(-c3c(-c4ccc(OCCN(C)C)cc4)[nH]c4nccc(Cl)c34)cc21` [Example 67, 1-(6-(4-chloro-2-(4-(2-(dimethylamino)ethoxy)phenyl)-1H-pyrrolo[2,3-b]pyridin-3-yl)indolin-1-yl)prop-2-en-1-one], the GI50 in series [1] and in series [3] was 100 to 500 nM each time. Besides, the IC50 against HER2 INS YVMA was at most 100 nM; on EGFR wt, at most 100 nM; in the series on H1975, 100 to 500 nM; in the series with A431, 1000 to 100000 nM; on EGFR T790ML858R, at most 100 nM. In addition, in series [2], the “Stability in presence of mouse liver microsomes without cofactor NADPH [% remaining after 50 min]” value was above 99 % remaining after 50 min.
